The values below come from PubChem BioAssay AID463199 (Broad Institute, 2010).

The source made the active and inactive calls.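 How the source made its calls: active means AC50, the dose giving half-maximal effect, exceeds a fixed cutoff for a compound that rescues yeast growth under heat; inactive means the rest, inconclusive results apart.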

This test relates to S. cerevisiae Burl-1 ts mutant growth, BacTiter-Glo, 38.5C 24 h. As to the kind of experiment: growth induction of Burl-1 ts yeast mutant, dose response, counter-screen for SUMOylation pathway inhibitor project, whole organism, S. cerevisiae, luminescence (AID 463199). For orientation: A counterscreen serves to expose hits that act by an unwanted route or on another target.

For `O=C(NNC(=O)C12CC3CC(CC(C3)C1)C2)c1ccccn1`, the AC50 is > 42 µM (inactive).

Consider `C/C(=N\N=C(c1ccccc1)c1ccccc1)c1ccco1`, for which the AC50 is > 42 µM (inactive). With `COc1ccc(-n2c(-c3ccccc3)nc3ccccc3c2=O)cc1`, the AC50 is > 42 µM (inactive).

On to `COc1cc2c(cc1NC(=O)c1cccnc1)oc1ccccc12`, for which the AC50 was > 42 µM (inactive). The same measure for `COc1cc(C(=O)OCC(=O)NC(C)CCc2ccccc2)cc(OC)c1OC` (stereo not drawn): > 42 µM (inactive); for `COC(=O)c1sc2ccccc2c1NC(=O)c1ccc(S(=O)(=O)N2CCCC(C)C2)cc1` (stereo not drawn): > 42 µM (inactive). In the case of `COc1ccc(NC(=O)c2cc(S(=O)(=O)Nc3ccc(OC)cc3)cs2)cc1` it was > 42 µM (inactive); in that of `CCOC(=O)c1cc2c(ccn2-c2ccc(F)cc2)n1CC(=O)N1CCN(C(=O)c2ccco2)CC1`, > 42 µM (inactive); in that of `Cc1ccccc1Nc1c([N+](=O)[O-])ccc2c1=NC1(CCCCC1)N=2`, > 42 µM (inactive).

Take `O=C1CC(c2c[nH]c3ccccc23)C(=O)N1c1ccccc1` (stereo not drawn): the AC50 is > 42 µM (inactive).

As to `CCC(C)(C)n1nnnc1C(c1cccnc1)N1CCC(Cc2ccccc2)CC1` (stereo not drawn), the AC50 was > 42 µM (inactive). Consider `O=C(OCc1ccccc1)c1cccc(-c2nnn(Cc3ccccc3)n2)c1`, for which the AC50 was > 42 µM (inactive). Regarding `COC(=O)CN(C(=S)Nc1ccc(F)cc1)C1CC(=O)N(c2ccccc2)C1=O` (stereo not drawn), the AC50 was > 42 µM (inactive). In the case of `Nc1ccc(NC(=O)c2ccco2)c(Cl)c1` it was > 42 µM (inactive); in that of `COc1cccc(OC)c1C(=O)Nc1ccc2c(c1)N(S(=O)(=O)c1cccs1)CCC2`, > 42 µM (inactive); in that of `CCCNC(=O)Cn1sc2nc(C)cc(C)c2c1=O`, > 42 µM (inactive). In the case of `CN(CC(=O)Nc1cccc(F)c1)CC(=O)Nc1cccc(S(N)(=O)=O)c1` it was > 42 µM (inactive); in that of `S=C(NCCc1ccccc1)Nc1ccccc1Cl`, > 42 µM (inactive); in that of `Cc1cc(C)cc(C(=O)Oc2cc(C)[nH]c(=O)c2[N+](=O)[O-])c1`, > 42 µM (inactive). `CN=C(Nc1cccnc1)c1ccccc1`: the AC50 was > 42 µM (inactive).

For `Cc1ccc2nc(/C(C#N)=C\c3cc(O)ccc3[N+](=O)[O-])[nH]c2c1`, the AC50 is > 42 µM (inactive). In the case of `CCOc1ccccc1NC(=O)c1ccc2c(c1)C(=O)N(CC(C)C)C2=O` it was > 42 µM (inactive); in that of `Cc1ccc(N2C(=O)C3N=NN(CC(=O)N4N=C(c5cccc6ccccc56)CC4c4ccccc4)C3C2=O)cc1` (stereo not drawn), > 21 µM (inactive). The same measure for `N=c1c2c(n(Cc3ccc(Cl)c(Cl)c3)c3c1CCC3)CCCC2`: > 42 µM (inactive). The same measure for `CC1CCN(Cc2nc3c(c(=O)n(C)c(=O)n3C)n2CCc2ccccc2)CC1`: > 42 µM (inactive); for `CN(C)/C=C/C(=O)c1ccncc1`: > 42 µM (inactive). Regarding `O=C(CSc1nnc2ccccn12)NNC(=O)c1ccc(Cl)cc1`, the AC50 is > 42 µM (inactive). Take `COc1ccc(N=C2SC(C(=O)O)CC(=O)N2Cc2ccc(OC)c(OC)c2)cc1` (stereo not drawn): the AC50 was > 42 µM (inactive). In the case of `Cc1cc(C)cc(C(=O)NC(CC(N)=O)c2ccc(NCCN3CCOCC3)c([N+](=O)[O-])c2)c1` (stereo not drawn) it was > 42 µM (inactive); in that of `CCOc1ccc(C(C(=O)NC2CCCC2)N(C(=O)c2snc(C(N)=O)c2N)C2CCCC2)cc1` (stereo not drawn), > 42 µM (inactive); in that of `O=C(c1ccccc1F)N1CCN=C1SCc1cccnc1`, > 42 µM (inactive). In the case of `c1ccc2cc(Cn3ccnc3)ccc2c1` it was > 42 µM (inactive).

As for `N#CCCN(Cc1cccnc1)C(=O)Nc1cccc(Cl)c1`, the AC50 was > 42 µM (inactive). For the compound `Cc1ccc(S(=O)(=O)NCCS(=O)(=O)N2CCN(c3ccc(F)cc3)CC2)cc1`, the AC50 is > 42 µM (inactive). In the case of `Cc1[nH]nc2c1C(c1cccs1)C1=C(CC(C)(C)CC1=O)N2` (stereo not drawn) it was > 42 µM (inactive); in that of `Cc1ccc(S(=O)(=O)N2CCOCC2)cc1NC(=O)COC(=O)CNC(=O)c1ccccc1`, > 42 µM (inactive); in that of `CC(C)(C)NC(=O)CC1C(=O)NCCN1Cc1c(F)cccc1Cl` (stereo not drawn), 37.4 µM. As to `O=C(CCS(=O)(=O)c1ccc(Br)s1)NCc1ccccc1`, the AC50 was > 42 µM (inactive). In the case of `Cc1sc(NC(=O)c2ccc(Br)s2)c(C(N)=O)c1C` it was > 42 µM (inactive); in that of `Cc1ccc(Oc2ccc(OCC(=O)Nc3ccncc3)cc2)cc1`, > 42 µM (inactive); in that of `Cc1ccnc(NC(c2cccnc2)c2ccc3cccnc3c2O)c1` (stereo not drawn), > 42 µM (inactive). In the case of `CCOC(=O)/C(C#N)=C\c1ccc(CC)s1` it was > 42 µM (inactive). In the case of `O=C(Nc1nnc(COc2ccc(F)cc2)s1)c1cccs1` it was > 42 µM (inactive); in that of `Cc1n[nH]c(=O)nc1NCc1ccc(Cl)cc1`, > 42 µM (inactive); in that of `COc1cccc(-c2nn(-c3ccccc3)cc2/C=C(/NC(=O)c2ccccc2)C(=O)O)c1`, > 42 µM (inactive).

As to `Cc1c(Cl)cccc1NC(=S)NCCCN(C)C`, the AC50 was > 42 µM (inactive). The same measure for `CN(C)c1ccc(C(=O)N2CCCC(CCC(=O)N3CCN(c4ccccn4)CC3)C2)cc1` (stereo not drawn): > 42 µM (inactive).

As to `CC(C)(C)n1cnc2cc(NC(=O)c3ccc(Cl)cc3)ccc21`, the AC50 is > 42 µM (inactive). The same measure for `O=C(NCc1ccccn1)C1Nc2ccc(C(F)(F)F)cc2C2C=CCC12` (stereo not drawn): > 42 µM (inactive). In the case of `CS(=O)(=O)N1CCCC(C(=O)NCc2ccco2)C1` (stereo not drawn) it was > 42 µM (inactive). In the case of `COc1ccc(S(=O)(=O)NC(C)C(=O)NCc2ccccn2)cc1Cl` (stereo not drawn) it was > 42 µM (inactive).

On to `CCOc1ccc(Br)cc1CNCCN1CCOCC1`, for which the AC50 was > 42 µM (inactive). Turning to `CCOc1ccc(C(=O)Nc2ccc(N3CCN(C)CC3)cc2)cc1[N+](=O)[O-]`, the AC50 was > 42 µM (inactive). As to `COc1cc(C(c2c(C)[nH][nH]c2=O)c2c(C)[nH][nH]c2=O)cc(OC)c1OC`, the AC50 is > 42 µM (inactive). As to `CC(C)C(=O)Nc1cccc(-c2nc3ncccc3o2)c1`, the AC50 was > 42 µM (inactive). In the case of `CN1CCCCC1=NCCCn1cnc2c1c(=O)n(C)c(=O)n2C` it was > 42 µM (inactive). The same measure for `C[C@@]12C(=O)Nc3ccc(F)cc3C(=O)N1[C@H]1c3ccccc3OC[C@@H]1[C@@H]2c1ccccc1`: > 42 µM (inactive). The same measure for `NC(=O)CC(NC(=S)NCc1ccccc1)C(=O)O` (stereo not drawn): > 42 µM (inactive).

For `CCc1nn(C)c(N)c1C`, the AC50 is > 42 µM (inactive).

Regarding `O=C(Cc1cccs1)N1CCCC(c2nc3c(nnn3Cc3ccc(F)cc3)c(=O)[nH]2)C1` (stereo not drawn), the AC50 was > 42 µM (inactive). In the case of `O=C(/C=C/c1ccc(Cl)cc1Cl)Nc1cccc(S(=O)(=O)NC2=NCCCCC2)c1` it was > 42 µM (inactive); in that of `CC(=O)Nc1cc2nn(-c3ccccc3)nc2cc1Cl`, > 42 µM (inactive); in that of `COc1ccc(N(CC(=O)NCc2ccc(C)cc2)S(=O)(=O)c2c(C)nn(C)c2C)cc1`, > 42 µM (inactive). In the case of `O=C(OCc1nnc(-c2ccccc2)o1)c1ccc([N+](=O)[O-])o1` it was > 42 µM (inactive); in that of `NC(=O)C1=C[C@@H](c2ccc(Br)cc2)C[C@@H](OCCCCO)O1`, > 42 µM (inactive). The same measure for `COc1cccc(C2/C(=C(/O)c3ccccc3)C(=O)C(=O)N2Cc2ccco2)c1` (stereo not drawn): > 42 µM (inactive). `CC(C)C/C(=N/O)c1c[nH]c2ccccc12`: the AC50 is > 42 µM (inactive). The same measure for `CN(C)CC/C=C1\c2ccccc2Sc2ccc(Cl)cc21`: > 42 µM (inactive); for `Nc1ncnc2nc(SCC(=O)N3CCN(c4ccccc4)CC3)[nH]c12`: > 42 µM (inactive). The same measure for `COc1ccc(N2CC(C(=O)N3CCc4ccccc43)CC2=O)cc1` (stereo not drawn): > 42 µM (inactive); for `O=C(O)CC(NC(=O)OCc1ccccc1)c1ccc(Br)cc1` (stereo not drawn): > 42 µM (inactive). In the case of `COCC(=O)Nc1c(C(=O)Nc2ccc3c(c2)OCO3)oc2ccccc12` it was > 42 µM (inactive). Take `CCCCn1c(N)c(N(CCOC)C(=O)c2ccc(Cl)c(S(=O)(=O)N3CCCCC3)c2)c(=O)[nH]c1=O`: the AC50 was > 42 µM (inactive). The same measure for `Cc1cnc(NC(=O)CN2CCN(c3ccccc3F)CC2)s1`: > 42 µM (inactive); for `CC(C)(C)C(=O)NC1(C(F)(F)F)NC(=O)N(c2ccccc2F)C1=O` (stereo not drawn): > 42 µM (inactive). In the case of `Cc1cc(C)cc(-n2ncc3c2CCCC3NC(=O)c2cc(C)[nH]n2)c1` (stereo not drawn) it was > 42 µM (inactive). In the case of `CCN(CC)c1nc2c(c(=O)[nH]c(=O)n2C)n1CCOc1ccccc1` it was > 42 µM (inactive); in that of `CN(C)CCNC(=O)c1onc(CSc2ccc(F)c(F)c2)c1C(=O)NCCN(C)C`, > 42 µM (inactive); in that of `COC(=O)c1ccccc1SC(CC(=O)c1ccccc1)c1ccc(F)cc1` (stereo not drawn), > 42 µM (inactive).

As to `COc1ccc(CCNC(=O)c2cc(-c3ccco3)on2)cc1OC`, the AC50 is > 42 µM (inactive). The same measure for `O=C(Nc1ccncc1Cl)c1ccncc1`: > 42 µM (inactive); for `Cc1cccc(OCC(O)CN2C(C)(C)CC(O)CC2(C)C)c1` (stereo not drawn): > 42 µM (inactive); for `O=C(NCc1ccccc1Cl)C(=O)NCC1CCCN1S(=O)(=O)c1cccs1` (stereo not drawn): > 42 µM (inactive). As to `Cc1cc(C)n(C(=O)c2ccccc2[N+](=O)[O-])n1`, the AC50 is > 42 µM (inactive). The same measure for `Cc1cc(C(=O)NN)n[nH]1`: > 42 µM (inactive). In the case of `Cc1nnc(NC(=O)c2cccc(S(=O)(=O)N3CCCC3)c2)s1` it was > 42 µM (inactive). The same measure for `COC(=O)c1c(C)cc(O)c(C=O)c1O`: > 42 µM (inactive); for `CC(N=C(NC#N)Nc1ccncc1)C(C)(C)C` (stereo not drawn): > 42 µM (inactive).

A word on the AC50: it is the concentration at which the activity in the assay is half-maximal.
